The structures appear in SMILES notation.

The test has as its target T1, N-terminally GST-tagged human full length recombinant Mps-1 kinase (Homo sapiens, UniProt P33981).
T1 construct: N-terminally GST-tagged human full length recombinant Mps-1 kinase; purchased Invitrogen, Karslruhe, Germany PV4071
T1 sequence (P33981 1-857): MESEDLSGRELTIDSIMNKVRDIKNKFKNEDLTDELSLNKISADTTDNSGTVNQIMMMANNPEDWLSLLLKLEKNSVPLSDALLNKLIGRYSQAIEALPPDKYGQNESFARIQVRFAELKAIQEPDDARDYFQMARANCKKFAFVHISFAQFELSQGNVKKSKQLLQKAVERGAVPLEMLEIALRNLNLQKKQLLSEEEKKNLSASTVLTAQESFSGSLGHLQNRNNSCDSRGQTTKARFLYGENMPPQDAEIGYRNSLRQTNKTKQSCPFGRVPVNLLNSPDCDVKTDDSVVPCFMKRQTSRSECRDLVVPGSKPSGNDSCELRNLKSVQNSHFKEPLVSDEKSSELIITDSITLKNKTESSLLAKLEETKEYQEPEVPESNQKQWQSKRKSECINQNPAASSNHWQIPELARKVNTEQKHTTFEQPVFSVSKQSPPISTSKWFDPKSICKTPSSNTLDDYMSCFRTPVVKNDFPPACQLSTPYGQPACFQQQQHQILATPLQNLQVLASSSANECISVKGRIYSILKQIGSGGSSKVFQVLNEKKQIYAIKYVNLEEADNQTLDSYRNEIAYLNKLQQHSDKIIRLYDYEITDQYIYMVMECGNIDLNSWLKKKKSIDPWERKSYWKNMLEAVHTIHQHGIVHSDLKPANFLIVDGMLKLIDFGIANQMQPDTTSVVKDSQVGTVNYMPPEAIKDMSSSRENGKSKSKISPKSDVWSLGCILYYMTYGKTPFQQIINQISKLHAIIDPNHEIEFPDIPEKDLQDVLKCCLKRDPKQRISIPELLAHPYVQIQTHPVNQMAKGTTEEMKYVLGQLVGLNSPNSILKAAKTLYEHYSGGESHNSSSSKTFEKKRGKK
Briefly: Mps-1 kinase assay (TR-FRET). The following applies: Mps1 IC50 [nM], 10 μM ATP, 1 μM peptide substrate, 60 min at 22° C. It is filed as biochemical. The essentials:
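Compounds were tested against recombinant full-length Mps-1 bearing an N-terminal GST tag, about 1 nM final, with a biotinylated amide-capped peptide as substrate. Detection reagents were then bound for 1 h at 22° C and the product read by TR-FRET.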
As for `Cc1cc(-c2cnc3c(NCC4CN(C)C4)cc(Oc4cccc(F)c4F)nn23)ccc1C(=O)NC1CC1` [Example 543, N-cyclopropyl-4-[6-(2,3-difluorophenoxy)-8-{[(1-methylazetidin-3-yl)methyl]amino}imidazo[1,2-b]pyridazin-3-yl]-2-methylbenzamide], the IC50 was determined as 0.2 nM.

For `Cc1cc(-c2cnc3c(NCC(C)(C)O)cc(Sc4ccncc4)nn23)ccc1C(=O)NC1CC1` [Example 333, N-cyclopropl-4-{8-[(2-hydroxy-2-methylpropyl)amino]-6-(pyridin-4-yl-sulfanyl)imidazo[1,2-b]pyridazin-3-yl}-2-methyl-benzamide], the IC50 stood at 9.5 nM.

For the molecule `CC(=O)Nc1ccncc1Oc1cc(NCCC(F)(F)F)c2ncc(-c3ccc(C(=O)NC4CC4)c(C)c3)n2n1` [Example 476, 4-(6-{[4-(acetylamino)pyridin-3-yl]oxy}-8-[(3,3,3-trifluoropropyl)amino]imidazo[1,2-b]pyridazin-3-yl)-N-cyclo-propyl-2-methyl-benzamide], the IC50 amounted to 10.3 nM.

Turning to `Cc1cc(-c2cnc3c(NCC(C)(C)O)cc(SCCC(C)(C)C)nn23)ccc1C(=O)NC1CC1` [Example 217, N-cyclopropyl-4-{6-[(3,3-dimethylbutyl)sulfanyl]-8-[(2-hydroxy-2-methylpropyl)amino]imidazo[1,2-b]pyridazin-3-yl}-2-methylbenzamide], the IC50 was 3.6 nM.

For `Cc1cc(-c2cnc3c(NCCC(F)(F)F)cc(Nc4ccc(F)c(F)c4)nn23)ccc1C(=O)NC1CC1` [Example 373, N-cyclopropyl-4-{6-[(3,4-difluorophenyl)amino]-8-[(3,3,3-trifluoropropyl)amino]imidazo[1,2-b]pyridazin-3-yl}-2-methylbenzamide], the concentration for half-maximal inhibition (IC50) amounted to 0.2 nM.

For `CC(C)(O)CNc1cc(Sc2ccccc2)nn2c(-c3ccc(C(=S)NC4CC4)cc3)cnc12` [Example 245, N-cyclopropyl-4-{8-[(2-hydroxy-2-methylpropyl)amino]-6-(phenylsulfanyl)imidazo[1,2-b]pyridazin-3-yl}benzenecarbothioamide], the half-maximal inhibitory concentration (IC50) was found to be 0.7 nM.

On to `CSc1cc(NCC(C)C)c2ncc(-c3ccc(C(=O)NC4CC4)c(C)c3)n2n1` [Example 196, N-cyclopropyl-2-methyl-4-{8-[(2-methylpropyl)amino]-6-(methylsulfanyl)imidazo[1,2-b]pyridazin-3-yl}benzamide], for which the IC50 was 2.7 nM.

Take `Cc1cc(-c2cnc3c(NCCC(F)(F)F)cc(Oc4cccc(OC(C)C)c4)nn23)ccc1C(=O)NC1CC1` [Example 381, N-cyclopropyl-2-methyl-4-{6-[3-(propan-2-yloxy)phenoxy]-8-[(3,3,3-trifluoropropyl)amino]imidazo[1,2-b]pyridazin-3-yl}benzamide]: the 50% inhibitory concentration (IC50) was determined as 0.6 nM.

For the molecule `Cc1cc(-c2cnc3c(NCC(C)(C)N)cc(Oc4cccnc4)nn23)ccc1C(=O)NC1CC1` [Example 522, 4-{8-[(2-amino-2-methyl-propyl)amino]-6-(pyridin-3-yloxy)imidazo[1,2-b]pyridazin-3-yl}-N-cyclopropyl-2-methylbenzamide], the half-maximal inhibitory concentration (IC50) was 1.8 nM.

With `Cc1cc(-c2cnc3c(NCCc4nnn[nH]4)cc(Oc4cccc(F)c4)nn23)ccc1C(=O)NC1CC1` [Example 511, N-cyclopropyl-4-[6-(3-fluoro-phenoxy)-8-{[2-(1H-tetrazol-5-yl)ethyl]amino}imidazo[1,2-b]pyridazin-3-yl]-2-methyl-benzamide], the IC50 came to 0.3 nM.

Regarding `COc1cc(C(=O)NC2CC2)ccc1-c1cnc2c(NCC(C)(C)O)cc(Sc3ccccc3)nn12` [Example 51A, N-cyclopropyl-4-{8-[(2-hydroxy-2-methylpropyl)amino]-6-(phenylsulfanyl)imidazo[1,2-b]pyridazin-3-yl}-3-methoxybenzamide], the IC50 came out at 58 nM.

As to `CNC(=O)c1ccc(-c2cnc3c(NCCN4CCOCC4)cc(Oc4ccc(OC)cc4F)nn23)cc1C` [Example 565, 4-[6-(2-fluoro-4-methoxyphenoxy)-8-{[2-(morpholin-4-yl)ethyl]amino}imidazo[1,2-b]pyridazin-3-yl]-N,2-dimethylbenzamide], the IC50 is 3.5 nM.

(Values after patent US9255100B2 (BAYER INTELLECTUAL PROPERTY GMBH, priority 2010, dated 2016).)
